Results published in patent publication US10688099B2, “Methods for modulating the amount of RNA transcripts” (PTC Therapeutics, Inc., priority 2013, dated 2020).

Tested on: RNA isoforms in PNN 1-46 SMA type I patient-derived fibroblasts
Assay: RNA Abundance Modulation (RNA isoform abundance, iFPM, HiSeq RNA sequencing)
Type: cell-based, human
Details: 3 μM
Protocol: Cells from a cell line of interest are cultured in conditions sufficient to yield the number of cells capable of generating enough RNA for subsequent sequencing steps. Cells from the tested cell line are contacted with a compound described herein.
To culture said cells, they are seeded, at appropriate concentrations in a volume of media in a cell culture container and incubated for 4, 5, 6, 7, 8, 9, 10, or more hours. A concentrated solution of compound in a vehicle (e.g., DMSO) is then added in sufficient volume to result in the intended final concentration of the compound, for example 100 nM, 500 nM, 1 μM, 5 μM, 10 μM, 15 μM, 20 μM, or more. The cells may also be treated with vehicle alone, as a control. A number of replicates of each concentration or control may be made (e.g., 2 replicates). The cells are then incubated at a constant temperature appropriate for cell culture of the particular cell line (e.g., 37° C.) for 6, 12, 18, 24, 48, or more hours. After incubation, the growth medium is removed and the cells are washed with the appropriate buffer (e.g., PBS). Cells are then removed from adherence to the cell culture container by treatment with a solution containing trypsin, and the trypsin subsequently quenched with the appropriate volume of buffer (e.g., DMEM-FBS). The cells are then pelleted with gentle centrifugation (e.g., ≤90×g centrifugal force) and resuspended in a buffer to lyse the cells for extraction of RNA. The cell lysates may then be frozen (e.g., at −80° C.) or, alternately, may immediately be used in a procedure to purify the RNA (e.g. by use of the RNEASY PLUS® minikit). The RNA from cell lysates is eluted in the appropriate volume of buffer (e.g., RNEASE-FREE H2O®). The resulting purified RNA may then be sequenced (e.g., using RNASeq) or analyzed using a human exon array (e.g., by GENECHIP® human exon array) to determine changes in the RNA levels in those cells treated with compound compared to those cells treated only with DMSO. The purified RNA may also be quantified by other methods known in the art.
Using the RNA data obtained from sequencing, exon array, or other methods, a statistical analysis can reveal changes in the RNA levels of compound-treated compared with control. For example, t-test p-values may be calculated for the data obtained through sequencing and exon array methods in order to compare compound-treated cells to those treated with the DMSO control. […] Analysis of the sequencing and exon array data may then also yield predictions about the cause of the aberrant amount of an RNA transcript in the cells (e.g., perturbation of RNA splicing, RNA transcription, or RNA stability). These predictions may be further confirmed by methods known in the art. For example, RT-PCR and RT-qPCR may be used to confirm the change in amount of RNA transcripts for one or more particular transcripts of interest.
Following the methods described above in Example 1, PNN 1-46 SMA type I patient-derived fibroblasts were treated with 300 nM or 3 μM Compounds 774 and 808 in 0.5% DMSO.
700,000 cells were seeded in 10 mL of medium (DMEM plus 10% FBS) in a T-75 flask. Cells were allowed to attach for at least 4 hrs, after which 50 μL of a 200× compound solution (100% DMSO) was added to each well, and the plate was incubated at 37° C. for 24 hrs.
At the end of the incubation period, the supernatant was removed and the cells where washed with PBS. TrypLE (Invitrogen) express solution was added (e.g. 1.5 mL per one T75 flask). The flasks were incubated for 3 to 5 min at 37° C. The trypsin was then quenched, e.g., by adding 10 mL DMEM-FBS.
Next, the cells were pelleted using gentle centrifugation without exceeding 90×g centrifugal force. The supernatant was removed and the cell pellet was re-suspended in 600 μL RLT buffer (the RLT buffer was supplemented with beta-mercaptoethanol according to the RNeasy protocol manual) by pipetting up and down until the pellet was completely dissolved […]

CCc1nc(C)cn2nc(-c3cc(=O)n4cc(C5CCN(C)CC5)cc(C)c4n3)cc12 [Compound 774]
L2FC (x + 1) (UBE2V1 NM_022442): −1.807 | L2abs (Cpd-DMSO) (UBE2V1 NM_022442): 1.32 | abs (Cpd-DMSO) (UBE2V1 NM_022442): 2 iFPM | amp FC (x + 1) (UBE2V1 NM_022442): 3.50 | ave Cpd (UBE2V1 NM_022442): 0 iFPM | FC (x + 1) (UBE2V1 NM_199144): 9.0627 | L2FC (x + 1) (UBE2V1 NM_199144): 3.180 | L2abs (Cpd-DMSO) (UBE2V1 NM_199144): 3.01 | abs (Cpd-DMSO) (UBE2V1 NM_199144): 8 iFPM | amp FC (x + 1) (UBE2V1 NM_199144): 9.06 | ave Cpd (UBE2V1 NM_199144): 8 iFPM | FC (x + 1) (UBE2V1 NM_001032288): 1.0807 | L2FC (x + 1) (UBE2V1 NM_001032288): 0.112 | L2abs (Cpd-DMSO) (UBE2V1 NM_001032288): 8.47 | abs (Cpd-DMSO) (UBE2V1 NM_001032288): 355 iFPM | amp FC (x + 1) (UBE2V1 NM_001032288): 1.08 | ave Cpd (UBE2V1 NM_001032288): 4751 iFPM | FC (x + 1) (UBE2V1 NM_001257393): 0.0796 | L2FC (x + 1) (UBE2V1 NM_001257393): −3.651 | L2abs (Cpd-DMSO) (UBE2V1 NM_001257393): 3.53 | abs (Cpd-DMSO) (UBE2V1 NM_001257393): 12 iFPM | amp FC (x + 1) (UBE2V1 NM_001257393): 12.56 | ave Cpd (UBE2V1 NM_001257393): 0 iFPM | FC (x + 1) (UBE2V1 NM_001257394): 0.1697 | L2FC (x + 1) (UBE2V1 NM_001257394): −2.559 | L2abs (Cpd-DMSO) (UBE2V1 NM_001257394): 4.01 | abs (Cpd-DMSO) (UBE2V1 NM_001257394): 16 iFPM | amp FC (x + 1) (UBE2V1 NM_001257394): 5.89 | ave Cpd (UBE2V1 NM_001257394): 2 iFPM | FC (x + 1) (UBE2V1 NM_001257397): 0.5713 | L2FC (x + 1) (UBE2V1 NM_001257397): −0.808 | L2abs (Cpd-DMSO) (UBE2V1 NM_001257397): 3.18 | abs (Cpd-DMSO) (UBE2V1 NM_001257397): 9 iFPM | amp FC (x + 1) (UBE2V1 NM_001257397): 1.75 | ave Cpd (UBE2V1 NM_001257397): 11 iFPM | FC (x + 1) (UBE2V1 NM_001257399): 1.1595 | L2FC (x + 1) (UBE2V1 NM_001257399): 0.214 | L2abs (Cpd-DMSO) (UBE2V1 NM_001257399): 4.66 | abs (Cpd-DMSO) (UBE2V1 NM_001257399): 25 iFPM | amp FC (x + 1) (UBE2V1 NM_001257399): 1.16 | ave Cpd (UBE2V1 NM_001257399): 182 iFPM | FC (x + 1) (UBE2V1 NR_047554): 0.0730 | L2FC (x + 1) (UBE2V1 NR_047554): −3.777 | L2abs (Cpd-DMSO) (UBE2V1 NR_047554): 8.39 | abs (Cpd-DMSO) (UBE2V1 NR_047554): 337 iFPM | amp FC (x + 1) (UBE2V1 NR_047554): 13.71 | ave Cpd (UBE2V1 NR_047554): 25 iFPM | FC (x + 1) (UBE2V1 NR_047555): 0.9261 | L2FC (x + 1) (UBE2V1 NR_047555): −0.111 | L2abs (Cpd-DMSO) (UBE2V1 NR_047555): −1.09 | abs (Cpd-DMSO) (UBE2V1 NR_047555): 0 iFPM | amp FC (x + 1) (UBE2V1 NR_047555): 1.08 | ave Cpd (UBE2V1 NR_047555): 5 iFPM | FC (x + 1) (UBE2V1 NR_047556): 0.5268 | L2FC (x + 1) (UBE2V1 NR_047556): −0.925 | L2abs (Cpd-DMSO) (UBE2V1 NR_047556): 3.88 | abs (Cpd-DMSO) (UBE2V1 NR_047556): 15 iFPM | amp FC (x + 1) (UBE2V1 NR_047556): 1.90 | ave Cpd (UBE2V1 NR_047556): 15 iFPM | FC (x + 1) (UCHL5 AK225794): 0.7328 | L2FC (x + 1) (UCHL5 AK225794): −0.448 | L2abs (Cpd-DMSO) (UCHL5 AK225794): 3.79 | abs (Cpd-DMSO) (UCHL5 AK225794): 14 iFPM | amp FC (x + 1) (UCHL5 AK225794): 1.36 | ave Cpd (UCHL5 AK225794): 37 iFPM | FC (x + 1) (UCHL5 AK316064): 1.3941 | L2FC (x + 1) (UCHL5 AK316064): 0.479 | L2abs (Cpd-DMSO) (UCHL5 AK316064): 4.93 | abs (Cpd-DMSO) (UCHL5 AK316064): 30 iFPM | ave Cpd (UCHL5 AK316064): 106 iFPM | FC (x + 1) (UCHL5 BC015381): 1.2220 | L2FC (x + 1) (UCHL5 BC015381): 0.289 | L2abs (Cpd-DMSO) (UCHL5 BC015381): 1.34 | abs (Cpd-DMSO) (UCHL5 BC015381): 3 iFPM | ave Cpd (UCHL5 BC015381): 13 iFPM
